How the values were obtained:
[1] = biological target: T1, Tyrosine-protein kinase receptor TYRO3 (Homo sapiens) (UniProt Q06418); experiment: Inhibition of Rse assessed as activity remaining at 10 uM
T1 sequence (whole entry): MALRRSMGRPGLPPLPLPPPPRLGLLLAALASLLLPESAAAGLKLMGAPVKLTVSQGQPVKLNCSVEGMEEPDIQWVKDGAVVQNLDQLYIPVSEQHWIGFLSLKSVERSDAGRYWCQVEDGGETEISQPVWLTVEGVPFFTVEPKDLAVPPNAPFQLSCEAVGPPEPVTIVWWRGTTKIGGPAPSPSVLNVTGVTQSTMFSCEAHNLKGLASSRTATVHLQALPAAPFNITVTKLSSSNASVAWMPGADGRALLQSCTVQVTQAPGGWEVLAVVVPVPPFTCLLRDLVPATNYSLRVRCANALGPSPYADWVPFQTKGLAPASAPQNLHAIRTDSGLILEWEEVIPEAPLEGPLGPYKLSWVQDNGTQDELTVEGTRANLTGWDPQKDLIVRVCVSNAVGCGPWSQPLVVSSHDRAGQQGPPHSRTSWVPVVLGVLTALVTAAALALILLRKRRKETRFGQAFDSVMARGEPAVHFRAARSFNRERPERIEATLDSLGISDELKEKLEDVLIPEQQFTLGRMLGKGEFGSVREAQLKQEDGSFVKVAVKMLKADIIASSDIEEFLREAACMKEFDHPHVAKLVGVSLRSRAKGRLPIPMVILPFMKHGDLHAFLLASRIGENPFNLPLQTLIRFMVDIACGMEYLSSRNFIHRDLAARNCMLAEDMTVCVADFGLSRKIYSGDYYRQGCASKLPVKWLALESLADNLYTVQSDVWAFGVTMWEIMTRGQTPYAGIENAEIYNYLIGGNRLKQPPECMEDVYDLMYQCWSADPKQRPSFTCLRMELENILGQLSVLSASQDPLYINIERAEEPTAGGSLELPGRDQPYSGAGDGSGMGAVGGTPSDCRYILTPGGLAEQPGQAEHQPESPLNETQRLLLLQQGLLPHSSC

[2] = biological target: Protein kinase C alpha type (Homo sapiens) (UniProt P17252); experiment: Inhibition of PKC-alpha assessed as activity remaining at 10 uM
[3] = biological target: Vascular endothelial growth factor receptor 2 (Homo sapiens) (UniProt P35968); experiment: Inhibition of KDR assessed as activity remaining at 10 uM
[4] = biological target: Glycogen synthase kinase-3 beta (Homo sapiens) (UniProt P49841); experiment: Inhibition of GSK3-beta assessed as activity remaining at 10 uM
[5] = biological target: Tyrosine-protein kinase Yes (Homo sapiens) (UniProt P07947); experiment: Inhibition of Yes assessed as activity remaining at 10 uM
Chain of Tyrosine-protein kinase Yes (Homo sapiens) (P07947 2-543 limits assumed): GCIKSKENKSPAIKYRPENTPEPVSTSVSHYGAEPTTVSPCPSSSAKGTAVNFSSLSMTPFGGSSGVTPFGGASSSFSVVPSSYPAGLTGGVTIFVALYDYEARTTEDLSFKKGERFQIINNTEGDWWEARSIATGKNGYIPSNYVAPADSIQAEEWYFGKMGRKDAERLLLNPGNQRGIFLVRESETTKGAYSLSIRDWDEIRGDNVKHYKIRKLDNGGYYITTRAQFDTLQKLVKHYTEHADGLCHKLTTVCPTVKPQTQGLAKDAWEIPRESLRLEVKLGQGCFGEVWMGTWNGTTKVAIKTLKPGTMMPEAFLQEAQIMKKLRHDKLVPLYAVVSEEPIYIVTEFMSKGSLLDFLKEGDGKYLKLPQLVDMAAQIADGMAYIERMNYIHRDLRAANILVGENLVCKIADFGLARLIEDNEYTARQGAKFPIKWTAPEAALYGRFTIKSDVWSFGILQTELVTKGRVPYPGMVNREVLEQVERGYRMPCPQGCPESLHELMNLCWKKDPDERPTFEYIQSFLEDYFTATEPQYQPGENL

[6] = biological target: Mast/stem cell growth factor receptor Kit (Homo sapiens) (UniProt P10721); experiment: Inhibition of cKit assessed as activity remaining at 10 uM
[7] = biological target: Macrophage colony-stimulating factor 1 receptor (Homo sapiens) (UniProt P07333); experiment: Inhibition of Fms assessed as activity remaining at 10 uM
[8] = biological target: Misshapen-like kinase 1 (Homo sapiens) (UniProt Q8N4C8); experiment: Inhibition of MINK assessed as activity remaining at 10 uM
Chain of Misshapen-like kinase 1 (Homo sapiens) (Q8N4C8 whole entry, looked up): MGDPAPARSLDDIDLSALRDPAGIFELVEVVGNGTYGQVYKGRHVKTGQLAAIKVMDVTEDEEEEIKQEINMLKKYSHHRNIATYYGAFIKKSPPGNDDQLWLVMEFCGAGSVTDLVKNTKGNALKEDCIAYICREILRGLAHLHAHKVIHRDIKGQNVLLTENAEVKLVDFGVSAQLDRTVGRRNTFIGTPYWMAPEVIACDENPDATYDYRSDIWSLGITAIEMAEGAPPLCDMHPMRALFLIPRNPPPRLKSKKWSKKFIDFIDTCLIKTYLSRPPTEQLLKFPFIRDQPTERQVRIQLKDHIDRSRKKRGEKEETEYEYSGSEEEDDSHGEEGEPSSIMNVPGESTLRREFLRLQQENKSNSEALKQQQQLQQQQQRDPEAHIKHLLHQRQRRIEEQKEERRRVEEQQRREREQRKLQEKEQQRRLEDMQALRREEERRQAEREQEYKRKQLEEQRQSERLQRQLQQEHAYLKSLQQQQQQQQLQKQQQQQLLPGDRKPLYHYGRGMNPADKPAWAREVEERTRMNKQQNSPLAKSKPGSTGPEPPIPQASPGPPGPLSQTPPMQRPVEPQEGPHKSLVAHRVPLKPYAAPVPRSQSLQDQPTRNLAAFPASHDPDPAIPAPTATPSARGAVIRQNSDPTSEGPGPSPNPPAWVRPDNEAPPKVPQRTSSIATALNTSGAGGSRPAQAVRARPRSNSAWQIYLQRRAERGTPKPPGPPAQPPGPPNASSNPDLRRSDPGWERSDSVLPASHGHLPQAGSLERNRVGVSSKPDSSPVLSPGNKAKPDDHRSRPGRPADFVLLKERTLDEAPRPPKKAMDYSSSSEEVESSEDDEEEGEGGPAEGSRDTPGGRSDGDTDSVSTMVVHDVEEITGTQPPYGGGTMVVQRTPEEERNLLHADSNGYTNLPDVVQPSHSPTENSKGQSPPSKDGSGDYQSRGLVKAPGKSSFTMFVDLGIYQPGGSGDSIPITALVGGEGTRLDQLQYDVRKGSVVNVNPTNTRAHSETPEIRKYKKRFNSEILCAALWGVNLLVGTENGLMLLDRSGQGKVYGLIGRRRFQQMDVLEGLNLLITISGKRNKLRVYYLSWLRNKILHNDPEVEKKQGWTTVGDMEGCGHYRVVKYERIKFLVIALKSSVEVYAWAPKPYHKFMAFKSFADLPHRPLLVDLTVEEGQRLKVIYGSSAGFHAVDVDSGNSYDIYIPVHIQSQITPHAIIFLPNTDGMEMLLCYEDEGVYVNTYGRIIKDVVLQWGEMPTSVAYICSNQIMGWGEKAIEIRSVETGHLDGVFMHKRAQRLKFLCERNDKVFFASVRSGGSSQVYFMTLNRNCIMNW

[9] = biological target: Hepatocyte growth factor receptor (Homo sapiens) (UniProt P08581); experiment: Inhibition of Met assessed as activity remaining at 10 uM
Chain of Hepatocyte growth factor receptor (Homo sapiens) (P08581 whole entry): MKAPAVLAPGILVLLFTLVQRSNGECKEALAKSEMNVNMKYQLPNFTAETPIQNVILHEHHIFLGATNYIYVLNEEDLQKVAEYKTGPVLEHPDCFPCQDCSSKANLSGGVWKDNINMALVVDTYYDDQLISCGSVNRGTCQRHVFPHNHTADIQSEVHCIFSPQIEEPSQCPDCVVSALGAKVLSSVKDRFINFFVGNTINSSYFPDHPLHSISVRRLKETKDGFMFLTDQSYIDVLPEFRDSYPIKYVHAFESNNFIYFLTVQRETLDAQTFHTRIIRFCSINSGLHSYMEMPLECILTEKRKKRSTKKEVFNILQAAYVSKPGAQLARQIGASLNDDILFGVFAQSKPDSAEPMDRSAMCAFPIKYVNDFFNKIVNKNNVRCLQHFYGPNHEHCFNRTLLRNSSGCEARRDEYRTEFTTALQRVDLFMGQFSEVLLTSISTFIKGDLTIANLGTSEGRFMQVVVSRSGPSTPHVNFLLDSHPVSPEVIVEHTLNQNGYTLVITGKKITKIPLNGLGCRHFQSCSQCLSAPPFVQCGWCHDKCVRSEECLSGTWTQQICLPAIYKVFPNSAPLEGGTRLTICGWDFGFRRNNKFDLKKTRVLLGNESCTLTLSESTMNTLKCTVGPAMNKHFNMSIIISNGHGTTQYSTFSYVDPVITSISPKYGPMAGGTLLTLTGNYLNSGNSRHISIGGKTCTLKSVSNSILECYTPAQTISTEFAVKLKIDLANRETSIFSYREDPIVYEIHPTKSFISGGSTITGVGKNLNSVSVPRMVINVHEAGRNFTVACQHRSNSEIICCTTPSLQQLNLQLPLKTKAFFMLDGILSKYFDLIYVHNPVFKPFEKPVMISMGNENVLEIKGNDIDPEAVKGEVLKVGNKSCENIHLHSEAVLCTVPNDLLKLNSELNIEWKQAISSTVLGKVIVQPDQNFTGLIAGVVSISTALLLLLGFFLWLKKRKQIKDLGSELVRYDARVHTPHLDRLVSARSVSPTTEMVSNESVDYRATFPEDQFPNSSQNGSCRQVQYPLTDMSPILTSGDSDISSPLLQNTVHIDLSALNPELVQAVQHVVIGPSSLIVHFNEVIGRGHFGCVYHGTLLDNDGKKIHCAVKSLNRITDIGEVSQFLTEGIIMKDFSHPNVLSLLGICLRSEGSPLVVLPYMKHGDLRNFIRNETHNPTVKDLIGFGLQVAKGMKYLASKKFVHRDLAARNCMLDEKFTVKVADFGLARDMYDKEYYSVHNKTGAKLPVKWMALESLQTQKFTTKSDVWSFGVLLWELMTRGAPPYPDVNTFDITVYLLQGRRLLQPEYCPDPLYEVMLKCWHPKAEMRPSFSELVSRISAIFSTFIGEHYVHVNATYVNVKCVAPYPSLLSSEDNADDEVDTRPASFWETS

[10] = biological target: T2, Serine/threonine-protein kinase TBK1 (Homo sapiens) (UniProt Q9UHD2); experiment: Inhibition of TBK1 assessed as activity remaining at 10 uM
T2 sequence (whole entry): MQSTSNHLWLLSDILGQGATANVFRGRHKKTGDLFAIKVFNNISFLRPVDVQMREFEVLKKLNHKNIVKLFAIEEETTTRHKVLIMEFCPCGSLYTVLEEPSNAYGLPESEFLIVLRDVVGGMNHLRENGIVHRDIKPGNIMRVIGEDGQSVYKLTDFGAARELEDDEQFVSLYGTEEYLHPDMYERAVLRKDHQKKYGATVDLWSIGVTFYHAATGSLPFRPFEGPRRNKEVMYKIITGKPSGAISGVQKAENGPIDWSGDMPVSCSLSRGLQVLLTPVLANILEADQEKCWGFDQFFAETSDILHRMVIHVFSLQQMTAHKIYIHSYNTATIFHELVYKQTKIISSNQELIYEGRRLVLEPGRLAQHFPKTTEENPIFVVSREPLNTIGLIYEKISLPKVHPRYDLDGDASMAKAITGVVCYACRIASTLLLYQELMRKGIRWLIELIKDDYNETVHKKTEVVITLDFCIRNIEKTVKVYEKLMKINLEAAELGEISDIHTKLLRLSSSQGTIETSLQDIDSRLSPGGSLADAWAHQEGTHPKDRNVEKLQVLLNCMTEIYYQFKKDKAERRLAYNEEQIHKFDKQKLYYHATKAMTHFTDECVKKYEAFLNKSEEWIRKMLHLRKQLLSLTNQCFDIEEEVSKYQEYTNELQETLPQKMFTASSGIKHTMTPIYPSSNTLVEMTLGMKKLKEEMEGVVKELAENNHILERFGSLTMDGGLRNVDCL

[11] = biological target: Tyrosine-protein kinase ABL1 (Homo sapiens) (UniProt P00519); experiment: Inhibition of Abl assessed as activity remaining at 10 uM
[12] = biological target: Protein-tyrosine kinase 6 (Homo sapiens) (UniProt Q13882); experiment: Inhibition of BRK assessed as activity remaining at 10 uM
[13] = biological target: Platelet-derived growth factor receptor alpha (Homo sapiens) (UniProt P16234); experiment: Inhibition of PDGFRalpha assessed as activity remaining at 10 uM
[14] = biological target: Serine/threonine-protein kinase pim-2 (Homo sapiens) (UniProt Q9P1W9); experiment: Inhibition of Pim2 assessed as activity remaining at 10 uM
[15] = biological target: Serine/threonine-protein kinase mTOR (Homo sapiens, UniProt P42345); experiment: Inhibition of mTOR-mediated Akt phosphorylation in human PC3 cells; assay type: cell-based, PC-3
[16] = biological target: Mitogen-activated protein kinase 9 (Homo sapiens) (UniProt P45984); experiment: Inhibition of JNK2alpha2 assessed as activity remaining at 10 uM
Chain of Mitogen-activated protein kinase 9 (Homo sapiens) (P45984 whole entry, looked up): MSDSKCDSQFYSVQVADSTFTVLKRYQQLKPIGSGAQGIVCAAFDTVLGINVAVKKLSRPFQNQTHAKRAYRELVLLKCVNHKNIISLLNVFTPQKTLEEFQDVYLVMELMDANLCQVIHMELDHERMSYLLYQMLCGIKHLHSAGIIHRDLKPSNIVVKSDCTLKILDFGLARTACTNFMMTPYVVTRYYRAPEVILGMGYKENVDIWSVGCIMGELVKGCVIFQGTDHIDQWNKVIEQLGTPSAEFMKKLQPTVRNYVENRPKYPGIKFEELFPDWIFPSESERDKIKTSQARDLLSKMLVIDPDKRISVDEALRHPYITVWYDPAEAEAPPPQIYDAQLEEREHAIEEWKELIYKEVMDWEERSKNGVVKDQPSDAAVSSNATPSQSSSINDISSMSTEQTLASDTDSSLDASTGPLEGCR

[17] = biological target: Insulin-like growth factor 1 receptor (Homo sapiens) (UniProt P08069); experiment: Inhibition of IGF1R assessed as activity remaining at 10 uM
Chain of Insulin-like growth factor 1 receptor (Homo sapiens) (P08069 31-736 limits assumed): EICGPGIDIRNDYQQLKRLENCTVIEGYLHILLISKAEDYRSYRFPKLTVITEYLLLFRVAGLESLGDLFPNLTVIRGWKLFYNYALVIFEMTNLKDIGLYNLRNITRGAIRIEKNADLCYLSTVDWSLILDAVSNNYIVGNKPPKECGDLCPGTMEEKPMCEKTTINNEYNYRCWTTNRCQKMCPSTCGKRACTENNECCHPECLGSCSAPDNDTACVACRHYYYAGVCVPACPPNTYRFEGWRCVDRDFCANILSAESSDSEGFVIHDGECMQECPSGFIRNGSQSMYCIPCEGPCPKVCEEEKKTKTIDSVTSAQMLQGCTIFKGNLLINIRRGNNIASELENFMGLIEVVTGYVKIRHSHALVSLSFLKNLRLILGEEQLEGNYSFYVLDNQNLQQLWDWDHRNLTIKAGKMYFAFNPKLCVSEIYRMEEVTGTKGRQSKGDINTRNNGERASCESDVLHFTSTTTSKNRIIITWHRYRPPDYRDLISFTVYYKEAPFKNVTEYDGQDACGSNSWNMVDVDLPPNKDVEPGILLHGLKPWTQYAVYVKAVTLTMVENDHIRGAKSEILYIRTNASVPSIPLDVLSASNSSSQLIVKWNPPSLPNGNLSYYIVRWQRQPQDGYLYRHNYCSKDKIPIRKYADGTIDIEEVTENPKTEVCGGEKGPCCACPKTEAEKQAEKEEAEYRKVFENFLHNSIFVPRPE
Chain of Insulin-like growth factor 1 receptor (Homo sapiens) (P08069 741-1367 limits assumed): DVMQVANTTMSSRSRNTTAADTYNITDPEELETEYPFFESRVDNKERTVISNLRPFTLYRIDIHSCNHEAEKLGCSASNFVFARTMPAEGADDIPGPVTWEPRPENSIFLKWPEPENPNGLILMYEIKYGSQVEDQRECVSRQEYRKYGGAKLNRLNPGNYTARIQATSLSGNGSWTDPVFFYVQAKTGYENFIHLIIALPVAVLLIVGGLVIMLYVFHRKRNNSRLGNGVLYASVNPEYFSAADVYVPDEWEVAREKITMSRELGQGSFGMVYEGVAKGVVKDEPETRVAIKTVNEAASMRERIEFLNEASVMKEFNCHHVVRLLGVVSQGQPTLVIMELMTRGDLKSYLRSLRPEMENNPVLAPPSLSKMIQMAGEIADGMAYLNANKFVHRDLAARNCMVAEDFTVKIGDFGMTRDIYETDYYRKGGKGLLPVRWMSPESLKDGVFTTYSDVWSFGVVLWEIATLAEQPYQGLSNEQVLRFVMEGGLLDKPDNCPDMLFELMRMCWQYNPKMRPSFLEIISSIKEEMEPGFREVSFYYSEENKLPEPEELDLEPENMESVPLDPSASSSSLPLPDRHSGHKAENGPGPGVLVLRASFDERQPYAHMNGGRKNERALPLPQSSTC

[18] = biological target: MAP kinase-activated protein kinase 2 (Homo sapiens) (UniProt P49137); experiment: Inhibition of MAPKAP-K2 assessed as activity remaining at 10 uM

How did the Activity [1] turn out when `O=c1[nH]c2ncc(-c3ccc(-c4nc[nH]n4)cc3)nc2n1CC1CCOCC1` was run?
The Activity was 86%.

What about the Activity [2] of the same compound?
Its Activity is 86%.

And the Activity [3]?
Its Activity is 88%.

And the Activity [4]?
The Activity was 70%.

What about the Activity [5] of the same compound?
Its Activity is 87%.

What about the Activity [6] of the same compound?
Its Activity is 95%.

What about the Activity [7] of the same compound?
Its Activity is 37%.

And the Activity [8]?
Its Activity is 92%.

And the Activity [9]?
The Activity was 92%.

And the Activity [10]?
The Activity was 94%.

And the Activity [11]?
The Activity was 83%.

What about the Activity [12] of the same compound?
The Activity was 93%.

What about the Activity [13] of the same compound?
Its Activity is 94%.

And the Activity [14]?
The Activity was 93%.

And the IC50 [15]?
The IC50 was 150 nM.

What about the Activity [16] of the same compound?
The Activity was 79%.

And the Activity [17]?
The Activity was 95%.

And the Activity [18]?
The Activity was 93%.

For `O=c1[nH]c2ncc(-c3ccc4[nH]cnc4c3)nc2n1CC1CCCCC1`, which Activity [1] is on record?
The Activity was 88%.

And the Activity [2]?
The Activity was 82%.

And the Activity [3]?
The Activity was 62%.

And the Activity [4]?
Its Activity is 10%.

What about the Activity [5] of the same compound?
The Activity was 73%.

What about the Activity [6] of the same compound?
Its Activity is 94%.

And the Activity [7]?
Its Activity is 23%.

What about the Activity [8] of the same compound?
The Activity was 42%.

What about the Activity [9] of the same compound?
The Activity was 66%.

What about the Activity [10] of the same compound?
The Activity was 77%.

And the Activity [11]?
The Activity was 23%.

What about the Activity [12] of the same compound?
The Activity was 82%.

And the Activity [13]?
The Activity was 85%.

What about the Activity [14] of the same compound?
The Activity was 101%.

And the IC50 [15]?
Its IC50 is 137 nM.

What about the Activity [16] of the same compound?
Its Activity is 85%.

And the Activity [17]?
The Activity was 96%.

And the Activity [18]?
Its Activity is 89%.

Which results are given for `CC(C)(O)c1ccc(-c2cnc3[nH]c(=O)n(CC4CCCCC4)c3n2)cc1`?
Activity [1]: 74%; Activity [2]: 83%; Activity [3]: 83%; Activity [4]: 31%; Activity [5]: 74%; Activity [6]: 83%; Activity [7]: 26%; Activity [8]: 83%; Activity [9]: 94%; Activity [10]: 91%; Activity [11]: 53%; Activity [12]: 92%; Activity [13]: 93%; Activity [14]: 91%; IC50 [15]: 322 nM; Activity [16]: 110%; Activity [17]: 91%; Activity [18]: 99%

From ChEMBL document CHEMBL1944561, “Discovery and SAR exploration of a novel series of imidazo[4,5-b]pyrazin-2-ones as potent and selective mTOR kinase inhibitors” (Bioorg Med Chem Lett, 2011)
